Results taken from US8129398B2 (priority 2008, dated 2012).
Read-outs that look alike come from different tables or passages of the source.

Legend:
[1] = system: recombinant NL-Rluc virus; experiment: Inhibition of HIV replication (recombinant NL-Rluc virus, Renilla luciferase reporter); format: cell-based
HIV-integrase = molecular target: T1, HIV-integrase (Human immunodeficiency virus type 1 group M subtype B, UniProt P12497); experiment: HIV-Integrase Inhibition Activity (SPA bead integration assay with P33 labeled target DNA); format: biochemical; settings: for IC50: recombinant integrase, class symbols, read-out: in vitro activity; for Ki: representative compounds
T1 construct: Recombinant integrase (0.26 ng) was incubated with the beads
Summary of the method: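 Biotinylated substrate DNA on streptavidin SPA beads loaded with recombinant integrase (90 min, 37° C), washed, then inhibitor plus 0.1 fmol P33-labeled target DNA added. Reaction stopped with 10 mM EDTA; integration measured as CPM by scintillation, giving IC50 ranks.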

[2] = read-out: Antiviral activity, NL-Rluc virus, serum condition not specified (10% FBS, 15 mg/ml human serum albumin/10% FBS or 40% human serum/5% FBS), class symbols

| Structure (SMILES) | EC50 ([1]; Human immunodeficiency virus 1) [nM] | IC50 (HIV-integrase) [nM] | Ki (HIV-integrase) [nM] | EC50 [1, 2] [nM] |
| --- | --- | --- | --- | --- |
| O=C(NC12CCC(CC1)Cn1c2nc(C(=O)NCc2ccc(F)cc2)c(O)c1=O)C(=O)c1c[nH]c2c(-n3cncn3)ncc(F)c12 [Example 48, N-(4-Fluorobenzyl)-10-(((4-fluoro-7-(1H-1,2,4-triazol-1-yl)-1H-pyrrolo[2,3-c]pyridin-3-yl)(oxo)acetyl)amino)-3-hydroxy-4-oxo-4,6,7,8,9,10-hexahydro-7,10-ethanopyrimido[1,2-a]azepine-2-carboxamide] | 4 | < 10 | 1 |  |
| O=C(NCc1ccc(F)cc1)c1nc2n(c(=O)c1O)CC1CC2CN(C(=O)OCc2ccccc2)C1 (stereo not shown) [Example 6, 7,11-Methano-4H-pyrimido[1,2-a][1,5]diazocine-9(6H)-carboxylic acid, 2-[[[(4-fluorophenyl)methyl]amino]carbonyl]-7,8,10,11-tetrahydro-3-hydroxy-4-oxo-, phenylmethyl ester] | 141 | 10 to 100 | 12 |  |
| Cc1cc(CNC(=O)c2nc3n(c(=O)c2O)CC2CCC3(NS(=O)(=O)CC3CC3)CC2)ccc1F [Example 306, 7,10-Ethanopyrimido[1,2-a]azepine-2-carboxamide, 10-[[(cyclopropylmethyl)sulfonyl]amino]-N-[(4-fluoro-3-methylphenyl)methyl]-4,6,7,8,9,10-hexahydro-3-hydroxy-4-oxo-] | 385 | > 100 | 860 |  |
| O=C(NCc1ccc(F)cc1)c1nc2n(c(=O)c1O)CC1CCC2(NS(=O)(=O)C2CC2)CC1 [Example 41, 10-((Cyclopropylsulfonyl)amino)-N-(4-fluorobenzyl)-3-hydroxy-4-oxo-4,6,7,8,9,10-hexahydro-7,10-ethanopyrimido[1,2-a]azepine-2-carboxamide] | < 1 | < 10 | 1 |  |
| NC12CCC(CC1)Cn1c2nc(C(=O)NCc2ccc(F)cc2)c(O)c1=O [Example 19, 10-Amino-N-(4-fluorobenzyl)-3-hydroxy-4-oxo-4,6,7,8,9,10-hexahydro-7,10-ethanopyrimido[1,2-a]azepine-2-carboxamide] | 302 | > 100 | 126 |  |
| Cc1noc(C)c1S(=O)(=O)NC12CCC(CC1)Cn1c2nc(C(=O)NCc2ccc(F)cc2)c(O)c1=O [Example 392] | 618 | > 100 | 467 |  |
| O=C(NC12CCC(CC1)Cn1c2nc(C(=O)NCc2ccc(F)cc2)c(O)c1=O)c1cccnc1 [Example 33, N-(4-Fluorobenzyl)-3-hydroxy-4-oxo-10-((3-pyridinylcarbonyl)amino)-4,6,7,8,9,10-hexahydro-7,10-ethanopyrimido[1,2-a]azepine-2-carboxamide] | 2 | < 10 | 1 |  |
| Cc1cc(CNC(=O)c2nc3n(c(=O)c2O)CC2CCC3(NC(=O)C3(C(F)(F)F)CC3)CC2)ccc1F [Example 303, 7,10-Ethanopyrimido[1,2-a]azepine-2-carboxamide, N-[(4-fluoro-3-methylphenyl)methyl]-4,6,7,8,9,10-hexahydro-3-hydroxy-4-oxo-10-[[[1-(trifluoromethyl)cyclopropyl]carbonyl]amino]-] | 192 | > 100 | 180 |  |
| CN(C)C(=O)C(=O)NC12CCC(CC1)Cn1c2nc(C(=O)N[C@H]2C[C@@H]2c2ccccc2)c(O)c1=O [Example 357] | 6 | < 10 | 9 |  |
| O=C(NCc1ccc(F)cc1)c1nc2n(c(=O)c1O)CC1CCC2(NS(=O)(=O)c2ccccc2OC(F)(F)F)CC1 [Example 396] | 455 | > 100 | 294 |  |
| CN(C)C(=O)C(=O)NC12CCC(Cn3c1nc(C(=O)NCc1ccc(F)cc1)c(O)c3=O)C2 (single isomer, unassigned) [Example 412, Ethanediamide, N′-[2-[[[(4-fluorophenyl)methyl]amino]carbonyl]-6,7,8,9-tetrahydro-3-hydroxy-4-oxo-7,11-methanopyrimido[1,2-a]azepin-10(4H)-yl]-N,N-dimethyl-] |  | < 10 |  | < 10 |
| CC(=O)N1CCC[C@H]1C(=O)NC12CCC(CC1)Cn1c2nc(C(=O)NCc2ccc(F)cc2)c(O)c1=O [Example 255, 7,10-Ethanopyrimido[1,2-a]azepine-2-carboxamide, 10-[[[(2S)-1-acetyl-2-pyrrolidinyl]carbonyl]amino]-N-[(4-fluorophenyl)methyl]-4,6,7,8,9,10-hexahydro-3-hydroxy-4-oxo-] |  | < 10 |  | < 10 |
| Cc1cc(CNC(=O)c2nc3n(c(=O)c2O)CC2CCC3(NC(=O)c3cccnn3)CC2)ccc1F [Example 314, 7,10-Ethanopyrimido[1,2-a]azepine-2-carboxamide, N-[(4-fluoro-3-methylphenyl)methyl]-4,6,7,8,9,10-hexahydro-3-hydroxy-4-oxo-10-[(3-pyridazinylcarbonyl)amino]-] | < 1 | < 10 | < 1 |  |
| CS(=O)(=O)N1CCC[C@H]1C(=O)NC12CCC(CC1)Cn1c2nc(C(=O)NCc2ccc(F)cc2)c(O)c1=O [Example 256, 7,10-Ethanopyrimido[1,2-a]azepine-2-carboxamide, N-[(4-fluorophenyl)methyl]-4,6,7,8,9,10-hexahydro-3-hydroxy-10-[[[(2S)-1-(methylsulfonyl)-2-pyrrolidinyl]carbonyl]amino]-4-oxo-] |  | < 10 |  | < 10 |
| COc1ccc(CNC(=O)c2nc3n(c(=O)c2O)CC2CCC3(NC(=O)C(=O)N(C)C)CC2)c(OC)c1 [Example 382] | 16 | 10 to 100 | 11 |  |
| O=C(NC12CCC(Cn3c1nc(C(=O)NCc1ccc(F)cc1)c(O)c3=O)OC2)OCc1ccccc1 (stereo not shown) [Example 219, Benzyl (2-((4-fluorobenzyl)carbamoyl)-3-hydroxy-4-oxo-6,7,8,9-tetrahydro-7,10-(epoxymethano)pyrimido[1,2-a]azepin-10(4H)-yl)carbamate] | 37 | 10 to 100 | 12 |  |
| O=C(NC12CCC(CC1)Cn1c2nc(C(=O)NCc2ccc(F)cc2)c(O)c1=O)c1ccccc1 [Example 36, N-(4-Fluorobenzyl)-3-hydroxy-4-oxo-10-((phenylcarbonyl)amino)-4,6,7,8,9,10-hexahydro-7,10-ethanopyrimido[1,2-a]azepine-2-carboxamide] |  | < 10 |  |  |
| O=C(NCc1ccc(F)cc1)c1nc2n(c(=O)c1O)CC1CCC2(NC(=O)C2CCCN2C(=O)C2CCC2)CC1 (stereo not shown) [Example 400] |  | < 10 |  |  |
| O=C(NC12CCC(CCn3c1nc(C(=O)NCc1ccc(F)cc1)c(O)c3=O)C2)C(=O)N1CCCC1 (stereo not shown) [Example 200, 8,11-Methano-4H-pyrimido[1,2-a]azocine-2-carboxamide, 11-[[1,2-dioxo-2-(1-pyrrolidinyl)ethyl]amino]-N-[(4-fluorophenyl)methyl]-6,7,8,9,10,11-hexahydro-3-hydroxy-4-oxo] |  | < 10 |  |  |
| CN(C)C(=O)C(=O)NC12CCC(CCn3c1nc(C(=O)NCc1ccc(F)c(Cl)c1)c(O)c3=O)C2 (stereo not shown) [Example 213, Ethanediamide, N′-[2-[[[(3-chloro-4-fluorophenyl)methyl]amino]carbonyl]-7,8,9,10-tetrahydro-3-hydroxy-4-oxo-8,11-methano-4H-pyrimido[1,2-a]azocin-11(6H)-yl]-N,N-dimethyl-] |  | < 10 |  |  |
